Data from US8158621B2, “Methods of treating or preventing autoimmune diseases with 2,4-pyrimidinediamine compounds” (Rigel Pharmaceuticals, Inc., priority 2002, dated 2012).

Legend:
[1] = tested on: cultured human mast cells (CHMC); experiment: CHMC low cell density IgE activation: tryptase assay; type: cell-based; settings: low cell density; read-out: CHMC anti-IgE Tryptase
Procedure, shortened: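 Degranulation was triggered with anti-IgE for 30 minutes at 37° C in cultured human mast cells seeded at low density (1000-1500 cells/well, chosen by donor) after a 1 hr equilibration in MT buffer. Released tryptase in cleared supernatant was quantified with a tryptase substrate at room temperature for 30 minutes.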

[2] = tested on: cultured human mast cells (CHMC); experiment: CHMC low cell density ionomycin activation: tryptase assay; type: cell-based; settings: low cell density; read-out: CHMC Ionomycin Tryptase
[3] = biological target: T1, Syk kinase (Homo sapiens, UniProt P43405); experiment: Syk kinase biochemical fluorescence polarization assay; settings: isolated Syk kinase, fluorescence polarization, 4 uM ATP
T1 construct: purchased Upstate, Lake Placid NY

[4] = tested on: Human Jurkat T-cells (clone N); experiment: Jurkat T-cell activation (anti-TCR, CD69 upregulation); type: cell-based
Procedure, shortened: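 Readout is CD69 upregulation by flow cytometry (anti-CD69-APC, 20 min at 4 °C) after 20 h anti-TCR (C305, 500 ng/ml) stimulation at 37 °C.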

Row | SMILES | IC50 [1] [µM] | IC50 [2] [µM] | IC50 [3] [µM] | IC50 [4] [µM]
1 | CNC(=O)C1Cc2cc(Nc3ncc(F)c(Nc4ccc5c(c4)NC(=O)C(F)(F)O5)n3)ccc2O1 (racemic) [Compound R927049] | 0.11 | > 10 | 0.004 | –
2 | COc1ccc(Nc2ncc(F)c(Nc3ccc4c(c3)C(N)CCO4)n2)cc1Cl (racemic) [Compound R950428] | 0.123 | 21 | 0.127 | –
3 | C[C@@H]1Oc2ccc(Nc3ncc(F)c(Nc4ccc5c(c4)NC(=O)[C@H](C)O5)n3)cc2NC1=O [Compound R908952] | 0.08 | 6.07 | 0.041 | –
4 | COc1ccc(Nc2ncc(F)c(Nc3ccc4c(c3)NC(=O)[C@H](C)O4)n2)cc1Cl [Compound R909321] | 0.163 | 30 | 0.104 | –
5 | COc1ccc(Nc2nc(Nc3cc(C)c(O)c(Cl)c3)ncc2F)cc1Cl [Compound R926968] | 0.249 | – | 0.235 | 2.02
6 | COc1cc(Nc2ncc(F)c(Nc3ccc4c(c3)NC(=O)C(F)(F)O4)n2)cc(OC)c1 [Compound R926970] | 0.06 | > 10 | 0.057 | –
7 | Fc1cnc(Nc2ccc3cc[nH]c3c2)nc1Nc1ccc(Cl)c(Cl)c1 [Compound R926975] | 0.421 | 30.2 | 0.767 | –
8 | O=C1Nc2cc(Nc3nc(Nc4ccc5cc[nH]c5c4)ncc3F)ccc2OC1(F)F [Compound R926977] | 0.0359 | > 10 | 0.007 | –
9 | CN(C)Cc1cc2cc(Nc3ncc(F)c(Nc4ccc5c(c4)NC(=O)C(F)(F)O5)n3)ccc2o1 [Compound R926979] | 0.109 | 23.5 | 0.013 | –
10 | COc1ccc(Nc2ncc(F)c(Nc3ccc4c(c3)NC(=O)C(F)(F)O4)n2)cc1Cl [Compound R926981] | 0.137 | > 10 | 0.01 | –
11 | CN(C)C(=O)C1Cc2cc(Nc3ncc(F)c(Nc4ccc5c(c4)NC(=O)C(F)(F)O5)n3)ccc2O1 (centres unmarked) [Compound R926983] | 0.195 | > 10 | 0.012 | –
12 | COc1cc(Nc2ncc(F)c(Nc3ccc4c(c3)NC(=O)C(F)(F)O4)n2)cc(C(F)(F)F)c1 [Compound R926984] | 0.167 | > 10 | 0.459 | –
13 | O=C1Nc2cc(Nc3nc(Nc4cc(Cl)cc(Cl)c4)ncc3F)ccc2OC1(F)F [Compound R926985] | 0.14 | 4.13 | 0.203 | –
14 | O=C1Nc2cc(Nc3nc(Nc4cc(Cl)c(O)c(Cl)c4)ncc3F)ccc2OC1(F)F [Compound R927048] | 0.05 | > 10 | 0.002 | –
15 | CC1(C)Oc2ccc(Nc3nc(Nc4cc(Cl)c(O)c(Cl)c4)ncc3F)cc2NC1=O [Compound R927051] | – | 12.6 | 0.01 | –
16 | COc1cc(Nc2ncc(F)c(Nc3ccc(Cl)c(Cl)c3)n2)cc(OC)c1 [Compound R927060] | 0.222 | 5.17 | 0.62 | –
17 | COc1c(Cl)cc(Nc2ncc(F)c(Nc3ccc4c(c3)NC(=O)C(F)(F)O4)n2)cc1Cl [Compound R927061] | 0.126 | 4.72 | 0.158 | –
18 | COc1cc(Nc2ncc(F)c(Nc3cccc(N)n3)n2)cc(OC)c1 [Compound R927077] | 0.284 | 8.8 | 0.602 | –
19 | COc1ccc(Nc2ncc(F)c(Nc3cccc(N)n3)n2)cc1Cl [Compound R927082] | 0.256 | > 10 | 0.312 | –
20 | Nc1cccc(Nc2nc(Nc3cccc(O)c3)ncc2F)n1 [Compound R927083] | 0.316 | 19 | 0.449 | –
21 | COc1c(C)cc(Nc2ncc(F)c(Nc3ccc4c(c3)-n3ccnc3CO4)n2)cc1Cl [Compound R935418] | 0.228 | > 10 | 0.558 | –
22 | CC1(C)Oc2ccc(Nc3nc(Nc4ccc5c(cnn5CCCO)c4)ncc3F)cc2NC1=O [Compound R935432] | 0.036 | 8.5 | 0.05 | –
23 | CNC(=O)CCn1ncc2cc(Nc3ncc(F)c(Nc4ccc5c(c4)NC(=O)C(C)(C)O5)n3)ccc21 [Compound R935433] | 0.106 | 16.2 | 0.07 | –
24 | O=C1Nc2cc(Nc3nc(Nc4ccc5cn[nH]c5c4)ncc3F)ccc2OC1(F)F [Compound R940364] | 0.046 | > 10 | 0.001 | –
25 | CC1(C)Oc2ccc(Nc3ncc(F)c(Nc4ccc5c(c4)NC(=O)C(F)(F)O5)n3)cc2NC1=O [Compound R940367] | 0.117 | 14.1 | 0.013 | –
26 | Cn1ncc2ccc(Nc3ncc(F)c(Nc4ccc5c(c4)NC(=O)C(F)(F)O5)n3)cc21 [Compound R940368] | 0.025 | 1.58 | 0.001 | –
27 | CC1(C)Oc2ccc(Nc3nc(Nc4cccc(O)c4)ncc3F)nc2NC1=O [Compound R940382] | 0.104 | – | 0.144 | –
28 | COc1ccc(Nc2ncc(F)c(Nc3ccc4c(n3)NC(=O)C(C)(C)O4)n2)cc1F [Compound R940384] | 1.32 | – | > 10 | –

Row | SMILES | IC50 [1] [µM] | IC50 [2] [µM] | IC50 [3] [µM] | IC50 [4] [µM]
29 | CC1(C)Oc2ccc(Nc3nc(Nc4cccc(Cl)c4)ncc3F)nc2NC1=O [Compound R940386] | 3.42 | – | 19.5 | –
30 | CC1(C)Oc2ccc(Nc3nc(Nc4cc(Cl)cc(Cl)c4)ncc3F)nc2NC1=O [Compound R940387] | 1.19 | – | > 10 | –
31 | Cn1ncc2ccc(Nc3ncc(F)c(Nc4ccc5c(n4)NC(=O)C(C)(C)O5)n3)cc21 [Compound R940389] | 0.06 | – | 0.053 | –
32 | CC1(C)Oc2ccc(Nc3nc(Nc4ccc(OC(F)(F)F)c(Cl)c4)ncc3F)nc2NC1=O [Compound R940390] | > 10 | > 10 | > 10 | –
33 | CNC(=O)COc1cccc(Nc2ncc(F)c(Nc3cc(C)c(O)c(Cl)c3)n2)c1 [Compound R945366] | 0.112 | > 10 | 0.059 | –
34 | CC(=O)N1CCN(c2ccc(Nc3ncc(F)c(NC4CC4)n3)cc2)CC1 [Compound R945370] | 0.522 | > 10 | 1.05 | –
35 | COC(=O)N1CCN(c2ccc(Nc3ncc(F)c(NC4CC4)n3)cc2)CC1 [Compound R945371] | 0.713 | > 10 | 1.3 | –
36 | CC(=O)N1CCN(c2ccc(Nc3ncc(F)c(NC4CCC4)n3)cc2)CC1 [Compound R945385] | 1.1 | – | 2.12 | –
37 | O=C1COc2ccc(Nc3nc(Nc4cccc(OCC(=O)NC5CCC5)c4)ncc3F)nc2N1 [Compound R945389] | 0.0748 | > 10 | 0.035 | –
38 | O=C1COc2ccc(Nc3nc(Nc4ccc(Cl)c(Cl)c4)ncc3F)nc2N1 [Compound R945398] | 7 | – | 0.182 | –
39 | COc1c(Cl)cc(Nc2ncc(F)c(Nc3ccc4c(n3)NC(=O)CO4)n2)cc1Cl [Compound R945400] | > 10 | – | 17.9 | –
40 | COc1cc(Nc2ncc(F)c(Nc3ccc4c(n3)NC(=O)CO4)n2)cc(OC)c1 [Compound R945401] | – | > 10 | 0.007 | –
41 | COc1ccc(Nc2ncc(F)c(Nc3ccc4c(n3)NC(=O)CO4)n2)cc1F [Compound R945402] | 0.112 | – | 0.418 | –
42 | COc1ccc(Nc2ncc(F)c(Nc3ccc4c(n3)NC(=O)CO4)n2)cc1 [Compound R945404] | 0.103 | – | > 10 | –
43 | O=C1COc2ccc(Nc3nc(Nc4ccc5c(c4)OCCO5)ncc3F)nc2N1 [Compound R945405] | 0.131 | – | 0.168 | –
44 | O=C1COc2ccc(Nc3nc(Nc4ccc(N5CCOCC5)cc4)ncc3F)nc2N1 [Compound R945412] | 0.095 | – | 0.308 | –
45 | CC(C)Oc1ccc(Nc2ncc(F)c(Nc3ccc4c(n3)NC(=O)CO4)n2)cc1 [Compound R945413] | 1.7 | – | > 10 | –
46 | COC(=O)N1CCN(c2ccc(Nc3ncc(F)c(Nc4ccc5c(n4)NC(=O)C(C)(C)O5)n3)cc2)CC1 [Compound R945416] | 0.053 | – | 0.515 | –
47 | CCN(C(C)=O)c1ccc(Nc2ncc(F)c(Nc3ccc4c(n3)NC(=O)C(C)(C)O4)n2)cc1 [Compound R945418] | – | > 10 | > 10 | –
48 | CC(=O)N1CCN(c2ccc(Nc3ncc(F)c(Nc4ccc5c(n4)NC(=O)C(C)(C)O5)n3)cc2)CC1 [Compound R945419] | 0.125 | – | 0.127 | –
49 | CC1(C)Oc2ccc(Nc3nc(Nc4ccc(N5CCOCC5)cc4)ncc3F)nc2NC1=O [Compound R945423] | 0.145 | – | 0.273 | –
50 | CC1(C)Oc2ccc(Nc3nc(Nc4cccc(OCC(=O)NC5CCC5)c4)ncc3F)nc2NC1=O [Compound R945424] | 0.188 | – | 0.665 | –
51 | CN1CCN(c2ccc(Nc3ncc(F)c(Nc4ccc5c(n4)NC(=O)CO5)n3)cc2)CC1 [Compound R945426] | 0.256 | – | 0.301 | –
52 | CN1CCN(c2ccc(Nc3ncc(F)c(Nc4ccc5c(n4)NC(=O)C(C)(C)O5)n3)cc2)CC1 [Compound R945427] | 0.279 | – | 0.479 | –
53 | Cc1cc(C)cc(Nc2ncc(F)c(Nc3ccc4c(n3)NC(=O)CO4)n2)c1 [Compound R945432] | 0.049 | – | 4440 | –
54 | Cc1cc(C)cc(Nc2ncc(F)c(Nc3ccc4c(n3)NC(=O)C(C)(C)O4)n2)c1 [Compound R945433] | 0.276 | – | 0.431 | –
55 | N[C@@H]1CCCC[C@H]1Nc1ncc(F)c(Nc2cc(Cl)cc(Cl)c2)n1 [Compound R950440] | 10.5 | – | > 10 | –
